We go through ten compounds from publication PMC12242638, “Drug Repurposing by Virtual Screening: Identification of New Already Approved ROCK Inhibitors as Promising Drugs to Target Neurodegeneration” (ACS Omega, 2025).

Entries after “also recorded” stand apart in the source; their conditions may differ.

For series [1] the following is noted: previously reported; cited from earlier work.
The target in a further series is hROCK1 (Homo sapiens, UniProt Q13464). In words: HotSpot Kinase Assay, ROCK1 inhibition (Reaction Biology Corp.). The class given is biochemical. The procedure: (§1) The HotSpot Kinase Assay was used for compound screening on protein kinases, as already reported. The assay was performed in a base reaction buffer containing 20 mM Hepes (pH 7.5), 10 mM MgCl2, 1 mM EGTA, 0.01% Brij-35, 0.02 mg/mL BSA, 0.1 mM Na3VO4, 2 mM DTT, and 1% DMSO, with the required cofactors added individually to each kinase reaction. The substrate was prepared in freshly made base reaction buffer, and cofactors were added accordingly. The indicated kinase was then delivered into the substrate solution and gently mixed. Test compounds, dissolved in 100% DMSO, were added to the kinase reaction mixture using acoustic technology (Echo550; nanoliter range), followed by incubation for 20 min at room temperature. The reaction was initiated by adding ^33P-ATP (1 μM) and incubating for 2 h at room temperature. Kinase activity was detected using the P81 filter-binding method.

A further series deals with hROCK2 (Homo sapiens, UniProt O75116). In words: HotSpot Kinase Assay, ROCK2 inhibition (Reaction Biology Corp.). The class given is biochemical. The procedure:
as §1

The next series relates to ROCK1. The following applies: introduction, literature values; read-out: ROCK1 IC50 of approved ROCK inhibitors; cited from earlier work.
For a further series, the system named is ROCK2. The following applies: introduction, literature values; read-out: ROCK2 IC50 of approved ROCK inhibitors; cited from earlier work.
The subject of series [2] is mouse hippocampal neurons. The conditions noted are these: primary cultures of mouse hippocampal neurons; cited from earlier work.
Series [3] has as its system murine primary astrocytes. In words: GFAP and C3 immunocytochemistry in LPS-treated primary cortical astrocytes. Type of series: cell-based, C57BL/6 mice (Mus musculus). The following applies: 24 h; for C3 immunostaining in LPS-treated astrocyte cultures: 1 μM ruxolitinib, LPS 10 μg/mL. On the procedure:
Primary cortical astrocyte cultures were prepared from brains of P0–3 C57BL/6 mice as described by Matias et al. The meninges of the brain were removed to cortex desiccation in Gey’s buffer, and the cerebral cortex was maintained in DMEM/F12, supplemented with 10% FBS. […] After 24 h, cultures were washed and fixed.
Astrocyte cultures were fixed with 4% PFA in phosphate-buffered saline (PBS, pH 7.4) for 15 min, and nonspecific sites were blocked with 3% BSA, 5% normal goat serum, and 0.2% Triton X-100 diluted in PBS for 1 h, before incubation with the rabbit anti-GFAP (1:1,000, DAKO Cytomation, Cat. Z0334) and the rat anti-C3 (1:100, Abcam, Cat. ab11862) at 4 °C overnight. Subsequently, the cells were thoroughly washed with PBS and incubated with secondary antibodies at room temperature for 2 h.

The subject of another series is C6 cells. In words: MTT cell viability, C6 glioma cell line. The following applies: 0.1 to 5 μM, 24 h. Type of series: cell-based. On the procedure:
(§2) Prior to the experiments, SH-SY5Y cells were cultured in DMEM/F12 plus 10% FBS (Fetal bovine serum, Invitrogene). […] The cells were incubated for 24 h under these conditions.
(§3) C6 and SH-SY5Y cells were plated in a 96-well plate with 1 × 10^4 cells per well. Cell morphology was observed using an EVOS phase-contrast microscope (Invitrogen, ThermoFisher Scientific, USA), and viability was evaluated using a 3-[4,5-dimethylthiazol-2-yl]-2,5-diphenyltetrazolium bromide (MTT) reduction assay. After 24 h of treatment, cells were incubated with 0.5 mg/mL MTT dye for 3 h at 37 °C and 5% CO2. This assay evaluates the labeling activity of mitochondrial dehydrogenases such as succinate dehydrogenase by reducing MTT (yellow) to a purple formazan salt. The culture media were removed, and the crystals were dissolved in 150 μL DMSO. The intensity of formazan was measured using a GloMax spectrophotometer (Promega) at a wavelength of 560 nm.

Another series concerns SH-SY5Y cells. Put plainly: MTT cell viability, SH-SY5Y cell line. The class given is cell-based. The following applies: 0.1 to 5 μM, 24 h. The procedure:
as §2, §3

A further series deals with PKCα (Homo sapiens, UniProt P17252). In words: HotSpot Kinase Assay, AGC kinase selectivity, PKCα. Type of series: biochemical. On the procedure:
as §1

Sequence of hROCK2 (O75116 whole entry): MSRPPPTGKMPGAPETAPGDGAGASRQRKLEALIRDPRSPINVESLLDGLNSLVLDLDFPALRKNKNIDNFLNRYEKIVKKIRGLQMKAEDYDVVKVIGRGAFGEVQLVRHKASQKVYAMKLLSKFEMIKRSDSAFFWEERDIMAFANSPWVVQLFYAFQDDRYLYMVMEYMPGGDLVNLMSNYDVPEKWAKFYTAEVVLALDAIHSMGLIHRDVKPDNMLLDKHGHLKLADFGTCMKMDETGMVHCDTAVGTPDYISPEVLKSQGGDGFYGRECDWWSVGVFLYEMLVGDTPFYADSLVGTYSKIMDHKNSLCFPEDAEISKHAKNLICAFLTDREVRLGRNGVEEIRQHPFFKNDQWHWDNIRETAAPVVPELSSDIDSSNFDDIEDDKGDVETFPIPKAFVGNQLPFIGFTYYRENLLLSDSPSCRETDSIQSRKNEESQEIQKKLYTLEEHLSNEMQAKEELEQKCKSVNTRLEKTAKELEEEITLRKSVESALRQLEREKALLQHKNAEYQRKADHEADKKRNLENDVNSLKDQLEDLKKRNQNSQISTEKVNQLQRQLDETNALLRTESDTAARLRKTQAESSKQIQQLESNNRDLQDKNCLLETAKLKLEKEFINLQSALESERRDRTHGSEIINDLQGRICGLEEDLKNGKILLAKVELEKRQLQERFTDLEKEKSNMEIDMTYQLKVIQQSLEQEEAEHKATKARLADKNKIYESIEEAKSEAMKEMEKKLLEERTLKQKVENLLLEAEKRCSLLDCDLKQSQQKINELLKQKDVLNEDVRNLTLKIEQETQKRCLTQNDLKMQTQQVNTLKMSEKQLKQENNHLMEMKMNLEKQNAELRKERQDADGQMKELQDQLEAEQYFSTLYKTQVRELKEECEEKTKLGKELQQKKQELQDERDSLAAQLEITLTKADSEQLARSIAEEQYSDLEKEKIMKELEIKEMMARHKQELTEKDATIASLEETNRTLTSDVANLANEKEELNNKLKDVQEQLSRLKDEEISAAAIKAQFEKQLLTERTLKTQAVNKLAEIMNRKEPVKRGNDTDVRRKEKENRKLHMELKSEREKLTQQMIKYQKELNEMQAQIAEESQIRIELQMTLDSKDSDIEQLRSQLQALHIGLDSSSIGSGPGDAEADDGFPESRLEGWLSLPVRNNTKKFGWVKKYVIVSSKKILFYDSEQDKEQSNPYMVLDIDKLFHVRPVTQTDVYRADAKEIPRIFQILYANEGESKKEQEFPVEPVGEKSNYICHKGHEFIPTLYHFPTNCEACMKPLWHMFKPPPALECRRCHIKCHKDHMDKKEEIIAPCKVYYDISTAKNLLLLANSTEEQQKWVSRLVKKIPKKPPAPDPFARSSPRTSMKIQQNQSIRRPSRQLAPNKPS
Sequence of hROCK1 (Q13464 whole entry): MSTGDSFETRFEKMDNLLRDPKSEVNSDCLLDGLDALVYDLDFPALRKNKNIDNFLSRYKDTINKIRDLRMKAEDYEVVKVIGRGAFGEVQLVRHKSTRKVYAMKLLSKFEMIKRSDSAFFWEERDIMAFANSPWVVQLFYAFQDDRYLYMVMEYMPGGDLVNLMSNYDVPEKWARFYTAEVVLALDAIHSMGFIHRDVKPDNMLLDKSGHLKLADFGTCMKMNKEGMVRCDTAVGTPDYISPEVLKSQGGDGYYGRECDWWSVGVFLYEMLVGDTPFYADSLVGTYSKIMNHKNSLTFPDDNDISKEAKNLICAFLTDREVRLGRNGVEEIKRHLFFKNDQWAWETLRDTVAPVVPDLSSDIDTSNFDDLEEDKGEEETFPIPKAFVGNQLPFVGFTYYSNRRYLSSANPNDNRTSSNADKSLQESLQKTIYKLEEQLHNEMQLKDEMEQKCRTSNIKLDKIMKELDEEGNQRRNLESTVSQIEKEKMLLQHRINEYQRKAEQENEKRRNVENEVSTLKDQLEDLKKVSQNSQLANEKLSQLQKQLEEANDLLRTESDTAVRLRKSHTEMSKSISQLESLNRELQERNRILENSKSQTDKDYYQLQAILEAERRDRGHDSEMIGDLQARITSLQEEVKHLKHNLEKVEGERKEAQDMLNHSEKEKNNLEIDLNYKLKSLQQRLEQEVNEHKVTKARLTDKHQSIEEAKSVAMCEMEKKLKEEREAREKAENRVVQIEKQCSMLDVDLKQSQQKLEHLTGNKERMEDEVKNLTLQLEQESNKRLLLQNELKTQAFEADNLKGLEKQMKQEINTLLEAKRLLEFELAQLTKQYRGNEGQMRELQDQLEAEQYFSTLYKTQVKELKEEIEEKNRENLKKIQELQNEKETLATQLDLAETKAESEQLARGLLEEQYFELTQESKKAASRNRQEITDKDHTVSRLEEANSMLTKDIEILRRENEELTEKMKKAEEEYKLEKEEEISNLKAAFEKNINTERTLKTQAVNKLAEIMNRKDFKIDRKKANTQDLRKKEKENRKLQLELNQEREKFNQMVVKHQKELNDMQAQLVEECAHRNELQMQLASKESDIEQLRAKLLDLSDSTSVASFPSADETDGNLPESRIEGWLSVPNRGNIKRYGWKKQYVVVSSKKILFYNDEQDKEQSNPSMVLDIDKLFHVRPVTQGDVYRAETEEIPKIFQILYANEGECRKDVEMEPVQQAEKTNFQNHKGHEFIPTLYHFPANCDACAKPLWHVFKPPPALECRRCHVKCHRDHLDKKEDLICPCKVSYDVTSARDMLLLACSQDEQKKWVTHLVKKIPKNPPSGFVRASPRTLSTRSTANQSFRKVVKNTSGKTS

With `CCS(=O)(=O)N1CC(CC#N)(n2cc(-c3ncnc4[nH]ccc34)cn2)C1` [Baricitinib (37), baricitinib], the “crossing of the blood-brain barrier (BBB)” value in series [1] is “cross the blood-brain barrier (BBB)”. For the same compound, the half-inhibitory concentration (IC50) at hROCK1 was found to be 19 nM; at hROCK2, 11 nM.

In the case of `CC(C)NC(=O)COc1cccc(-c2nc(Nc3ccc4[nH]ncc4c3)c3ccccc3n2)c1` [Belumosudil (4), Belumosudil], the values for the IC50 in the series with ROCK1 and with ROCK2 were […] and […], respectively.

As to `O=C1CCc2cc(OCCCCc3nnnn3C3CCCCC3)ccc2N1` [Cilostazole], at hROCK1 (30 µM), the “ROCK1 % (30 µM), printed under IC50 ROCK1 head” value was found to be 3%. Further, on hROCK2 (30 µM), the “ROCK2 % (30 µM), printed under IC50 ROCK2 head” value is 8%.

For the compound `O=S(=O)(c1cccc2cnccc12)N1CCCNCC1` [Fasudil (2), Fasudil], in series [2], the “levels of Tau phosphorylation” value is listed as “decreased the levels of Tau phosphorylation”. Besides, in the series with ROCK1, the IC50 was […].

Turning to `Cc1ccc(C(=O)OCc2ccc([C@@H](CN)C(=O)Nc3ccc4cnccc4c3)cc2)c(C)c1` [Netarsudil (1), Netarsudil], the values for the concentration for half-maximal inhibition (IC50) in the series with ROCK1 and with ROCK2 were […] and […], respectively.

As to `O=C(CCNNC(=O)c1ccncc1)NCc1ccccc1` [Nialamide (40), nialamide], the IC50 against hROCK1 was found to be 18800 nM; against hROCK2, 29200 nM.

On to `C[C@H]1CNCCCN1S(=O)(=O)c1cccc2cncc(F)c12` [Ripasudil (3), Ripasudil], for which the IC50 was 51 nM in the series with ROCK1 and 19 nM with ROCK2.

As for `N#CC[C@H](C1CCCC1)n1cc(-c2ncnc3[nH]ccc23)cn1` [Ruxolitinib (36), ruxolitinib], in series [1], the “crossing of the blood-brain barrier (BBB)” value was “cross the blood-brain barrier (BBB)”. For the same compound, the “C3 immunostaining in LPS-treated astrocyte cultures” value was “decreased C3 immunostaining; also recorded: reversed this event” in series [3] (listed as ruxolitinib) and “reduce C3 immunolabeling” in series [3] (listed as ruxolitinib (36)). For the same compound, the “GFAP intermediate filament organization and process extension of astrocytes” value in series [3] (1 μM) is “did not impact intermediate filament organization and process extension”. The “cell viability (MTT), C6 glioma (astrocytic cell line)” value with C6 cells (listed as ruxolitinib) was “No significant impact on the viability”; in the series on C6 cells (listed as ruxolitinib (36)), “did not adversely affect the viability; also recorded: does not affect the viability”. For the same compound, the “cell viability (MTT), SH-SY5Y (neuronal cell line)” value was “No significant impact on the viability” in the series on SH-SY5Y cells (listed as ruxolitinib) and “did not adversely affect the viability; also recorded: does not affect the viability” with SH-SY5Y cells (listed as ruxolitinib (36)). Also, 1250 nM corresponded to half-maximal inhibition against PKCα (IC50).

For the compound `COc1cc2nccc(Oc3ccc(NC(=O)Nc4cc(C)on4)c(Cl)c3)c2cc1OC` [Tivozanib (39), tivozanib], the IC50 on hROCK1 came to 12900 nM; at hROCK2, 856 nM. In addition, the “selectivity for ROCK2 over ROCK1” value at hROCK2 (from the IC50 values) was 15 fold.

Consider `Cc1cc(Nc2ncnc3ccc(NC4=NC(C)(C)CO4)cc23)ccc1Oc1ccn2ncnc2c1` [Tucatinib (41), tucatinib], for which the half-maximal inhibitory concentration (IC50) against hROCK1 was 51500 nM; against hROCK2 it was 18600 nM.
